Values quoted from earlier work, collected in patent US6476002B1 (priority 1997, dated 2002).

Legend:
[1] = system: rats with collagen arthritis; details: reported by Peacock et al. 1992
[2] = system: wound healing; details: from literature / copending application

CO[C@@H]1[C@H](OC(=O)NC(=O)CCl)CC[C@]2(CO2)[C@H]1[C@@]1(C)O[C@@H]1CC=C(C)C [AGM-1470]
joint swelling in rats with collagen arthritis [1]: reduces joint swelling | effect on wound healing [2]: inhibits wound healing
